PubChem BioAssay AID248 (DTP/NCI, 2004)
Several values for one entry are separate records, joined by “and”; a condition that tells them apart may be missing. Identical values can stand only once. Toxic doses and inconclusive results are not listed. Rule as the data show it: active = T/C of 150% or more; inactive = T/C below 125%.

System: L1210 leukemia ip in BDF1 mice, survival T/C
Experiment: NCI In Vivo Anticancer Drug Screen. Data for tumor model L1210 Leukemia (intraperitoneal) in B6D2F1 (BDF1) mice
Conditions: endpoint: mean survival time, higher = longer survival
Method in brief: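 Read-out is survival time, reported as the treated-group measurement over the vehicle-control measurement.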

[1] = dose: 100.0 mg/kg/injection, schedule: Q01DX009 (ip), vehicle: Klucel (hydroxypropylcellulose) (HPC)
[2] = dose: 200.0 mg/kg/injection, schedule: Q01DX009 (ip), vehicle: Klucel (hydroxypropylcellulose) (HPC)
[3] = dose: 100.0 mg/kg/injection, schedule: Q04DX003 (ip), vehicle: saline
[4] = dose: 100.0 mg/kg/injection, schedule: Q04DX003 (ip), vehicle: Klucel (hydroxypropylcellulose) (HPC)
[5] = dose: 200.0 mg/kg/injection, schedule: Q04DX003 (ip), vehicle: Klucel (hydroxypropylcellulose) (HPC)
[6] = dose: 400.0 mg/kg/injection, schedule: Q01DX009 (ip), vehicle: Klucel (hydroxypropylcellulose) (HPC)
[7] = dose: 400.0 mg/kg/injection, schedule: Q04DX003 (ip), vehicle: Klucel (hydroxypropylcellulose) (HPC)
[8] = dose: 50.0 mg/kg/injection, schedule: Q01DX009 (ip), vehicle: saline with Tween-80
[9] = dose: 100.0 mg/kg/injection, schedule: Q01DX009 (ip), vehicle: saline with Tween-80
[10] = dose: 200.0 mg/kg/injection, schedule: Q01DX009 (ip), vehicle: saline with Tween-80
[11] = dose: 100.0 mg/kg/injection, schedule: Q04DX002 (ip), vehicle: Klucel (hydroxypropylcellulose) (HPC)
[12] = dose: 100.0 mg/kg/injection, schedule: Q04DX002 (ip), vehicle: saline with Tween-80
[13] = dose: 200.0 mg/kg/injection, schedule: Q04DX002 (ip), vehicle: saline with Tween-80
[14] = dose: 400.0 mg/kg/injection, schedule: Q04DX002 (ip), vehicle: saline with Tween-80
[15] = dose: 200.0 mg/kg/injection, schedule: Q04DX003 (ip), vehicle: saline
[16] = dose: 100.0 mg/kg/injection, schedule: Q01DX001 (ip), vehicle: Klucel (hydroxypropylcellulose) (HPC)
[17] = dose: 200.0 mg/kg/injection, schedule: Q01DX001 (ip), vehicle: Klucel (hydroxypropylcellulose) (HPC)
[18] = dose: 400.0 mg/kg/injection, schedule: Q01DX001 (ip), vehicle: Klucel (hydroxypropylcellulose) (HPC)

Measured: T/C

C=CCc1ccc(OC(=O)Nc2ccc(C(=O)OCC)cc2)c(OC)c1
inactive: [1] 90 % of control | [2] 90 % of control

CCCC(O)(CCC)CC1=NC(C)(C)CO1
inactive: dose: 100.0 mg/kg/injection, schedule: Q04DX003 (ip), vehicle: saline sonified 87 % of control | dose: 200.0 mg/kg/injection, schedule: Q04DX003 (ip), vehicle: saline sonified 98 % of control | dose: 400.0 mg/kg/injection, schedule: Q04DX003 (ip), vehicle: saline sonified 95 % of control

CC(C)CCOC(CN)C(Cl)(Cl)Cl (stereo not drawn)
inactive: dose: 25.0 mg/kg/injection, schedule: Q01DX009 (ip), vehicle: saline 96 % of control and 107 % of control | dose: 25.0 mg/kg/injection, schedule: Q04DX002 (ip), vehicle: saline 98 % of control and 106 % of control | dose: 25.0 mg/kg/injection, schedule: Q04DX003 (ip), vehicle: saline 118 % of control | dose: 50.0 mg/kg/injection, schedule: Q01DX009 (ip), vehicle: saline 96 % of control and 100 % of control | dose: 50.0 mg/kg/injection, schedule: Q04DX002 (ip), vehicle: saline 95 % of control | dose: 50.0 mg/kg/injection, schedule: Q04DX003 (ip), vehicle: saline 102 % of control | dose: 100.0 mg/kg/injection, schedule: Q01DX009 (ip), vehicle: saline 98 % of control and 100 % of control | [3] 96 % of control and 109 % of control

C/C(=N\O)C1(O)CCCCC1
inactive: [1] 98 % of control | [4] 103 % of control | [2] 93 % of control | [5] 101 % of control | [6] 96 % of control | [7] 108 % of control

CCCCCCCCCCCCCCCC(=O)OC(C)COC (stereo not drawn)
inactive: [8] 108 % of control | dose: 100.0 mg/kg/injection, schedule: Q01DX001 (ip), vehicle: other 102 % of control | [9] 98 % of control | dose: 100.0 mg/kg/injection, schedule: Q04DX003 (ip), vehicle: other 111 % of control | dose: 200.0 mg/kg/injection, schedule: Q01DX001 (ip), vehicle: other 94 % of control | [10] 98 % of control | dose: 200.0 mg/kg/injection, schedule: Q04DX003 (ip), vehicle: other 107 % of control | dose: 400.0 mg/kg/injection, schedule: Q01DX001 (ip), vehicle: other 101 % of control | dose: 400.0 mg/kg/injection, schedule: Q04DX003 (ip), vehicle: other 110 % of control

O=C1OC(OC(=O)c2ccccc2)C(NC2CCCCC2)=C1Br (stereo not drawn)
inactive: [9] 98 % of control | [10] 96 % of control | dose: 400.0 mg/kg/injection, schedule: Q01DX009 (ip), vehicle: saline with Tween-80 98 % of control

O=C(/C=C/c1ccncc1)Nc1ccccc1
inactive: dose: 25.0 mg/kg/injection, schedule: Q04DX002 (ip), vehicle: Klucel (hydroxypropylcellulose) (HPC) 117 % of control | dose: 50.0 mg/kg/injection, schedule: Q04DX002 (ip), vehicle: Klucel (hydroxypropylcellulose) (HPC) 98 % of control | [11] 98 % of control

Cc1cc(Cl)cc(Cl)c1OCC(N)=O
inactive: [12] 94 % of control | [13] 94 % of control | [14] 94 % of control

COC1OC(CI)C(O)C(O)C1O (stereo not drawn)
inactive: dose: 100.0 mg/kg/injection, schedule: Q01DX001 (ip), vehicle: saline 109 % of control | dose: 200.0 mg/kg/injection, schedule: Q01DX001 (ip), vehicle: saline 109 % of control | dose: 400.0 mg/kg/injection, schedule: Q01DX001 (ip), vehicle: saline 120 % of control

O=C1OC(=C(Br)Br)C2C3C=CC(C3)C12 (stereo not drawn)
inactive: [3] 98 % of control | [15] 107 % of control

COc1ccc2c(=O)c(C)c(C)oc2c1CN1CCOCC1
inactive: dose: 0.78 mg/kg/injection, schedule: Q01DX009 (ip), vehicle: saline 94 % of control | dose: 1.56 mg/kg/injection, schedule: Q01DX009 (ip), vehicle: saline 98 % of control | dose: 3.12 mg/kg/injection, schedule: Q01DX009 (ip), vehicle: saline 107 % of control | dose: 6.25 mg/kg/injection, schedule: Q01DX009 (ip), vehicle: saline 100 % of control

Cc1nc(-c2ccccc2)[nH]c(=O)c1CC(O)c1ccccc1 (stereo not drawn)
inactive: [4] 86 % of control | [5] 92 % of control | [7] 87 % of control

Cc1cc(NC(=O)Nc2cc(F)ccc2F)no1
inactive: [16] 117 % of control | [1] 97 % of control | [11] 94 % of control and 90 % of control | [4] 99 % of control | [17] 106 % of control | [2] 92 % of control and 100 % of control | dose: 200.0 mg/kg/injection, schedule: Q04DX002 (ip), vehicle: Klucel (hydroxypropylcellulose) (HPC) 94 % of control and 97 % of control | [5] 103 % of control | [18] 101 % of control | [6] 97 % of control and 90 % of control | dose: 400.0 mg/kg/injection, schedule: Q04DX002 (ip), vehicle: Klucel (hydroxypropylcellulose) (HPC) 94 % of control and 101 % of control | [7] 103 % of control

ClCCC1OCCCO1
inactive: dose: 50.0 mg/kg/injection, schedule: Q01DX009 (ip), vehicle: saline + alcohol 96 % of control | dose: 100.0 mg/kg/injection, schedule: Q01DX009 (ip), vehicle: saline + alcohol 100 % of control | dose: 200.0 mg/kg/injection, schedule: Q01DX009 (ip), vehicle: saline + alcohol 96 % of control

CC(=O)NCCOc1ccc(N)cc1
inactive: [3] 104 % of control | [15] 98 % of control | dose: 400.0 mg/kg/injection, schedule: Q04DX003 (ip), vehicle: saline 98 % of control

O=[N+]([O-])c1ccc(N/N=C2\C3CC(c4ccccc4)C2C(c2ccccc2)=C3c2ccccc2)c([N+](=O)[O-])c1 (stereo not drawn)
inactive: dose: 12.5 mg/kg/injection, schedule: Q01DX009 (ip), vehicle: saline with Tween-80 91 % of control | dose: 25.0 mg/kg/injection, schedule: Q01DX009 (ip), vehicle: saline with Tween-80 88 % of control | [8] 96 % of control | [10] 89 % of control

CCc1c(N)nc(=O)[nH]c1C(=O)O
inactive: [16] 115 % of control | [4] 96 % of control | [17] 118 % of control | [5] 100 % of control | [18] 117 % of control | [7] 104 % of control

CCOC(=O)C1CCCC23CC(CC12)C(C)(C)C3Br (stereo not drawn)
inactive: [1] 100 % of control | [4] 94 % of control | [2] 94 % of control | [5] 95 % of control | [6] 94 % of control | [7] 103 % of control

O=C1c2cscc2C(O)c2c(Cl)sc(Cl)c21 (stereo not drawn)
inactive: [12] 101 % of control | [13] 97 % of control | [14] 89 % of control

OC1CCC2CCCC2C1 (stereo not drawn)
inactive: [1] 97 % of control | [4] 102 % of control | [2] 97 % of control | [5] 98 % of control | [7] 99 % of control

COc1ccc(-c2n[nH]c(C(F)(F)F)c2N=NN(C)C)cc1OC
inactive: dose: 75.0 mg/kg/injection, schedule: Q01DX001 (ip), vehicle: other 93 % of control | dose: 150.0 mg/kg/injection, schedule: Q01DX001 (ip), vehicle: other 94 % of control | dose: 300.0 mg/kg/injection, schedule: Q01DX001 (ip), vehicle: other 91 % of control

COC(=O)[C@H]1[C@H]2C[C@@H]3c4[nH]c5cc(OC)ccc5c4CCN3C[C@H]2C[C@@H](OC(=O)c2cccc(N(C)C)c2)[C@@H]1OC
inactive: dose: 0.78 mg/kg/injection, schedule: Q01DX009 (ip), vehicle: Klucel (hydroxypropylcellulose) (HPC) 102 % of control | dose: 0.78 mg/kg/injection, schedule: Q04DX003 (ip), vehicle: Klucel (hydroxypropylcellulose) (HPC) 94 % of control | dose: 1.56 mg/kg/injection, schedule: Q01DX009 (ip), vehicle: Klucel (hydroxypropylcellulose) (HPC) 102 % of control | dose: 1.56 mg/kg/injection, schedule: Q04DX003 (ip), vehicle: Klucel (hydroxypropylcellulose) (HPC) 107 % of control | dose: 3.12 mg/kg/injection, schedule: Q01DX009 (ip), vehicle: Klucel (hydroxypropylcellulose) (HPC) 96 % of control | dose: 3.12 mg/kg/injection, schedule: Q04DX003 (ip), vehicle: Klucel (hydroxypropylcellulose) (HPC) 104 % of control | dose: 6.25 mg/kg/injection, schedule: Q01DX009 (ip), vehicle: Klucel (hydroxypropylcellulose) (HPC) 93 % of control | dose: 6.25 mg/kg/injection, schedule: Q04DX003 (ip), vehicle: Klucel (hydroxypropylcellulose) (HPC) 104 % of control | dose: 12.5 mg/kg/injection, schedule: Q04DX003 (ip), vehicle: Klucel (hydroxypropylcellulose) (HPC) 100 % of control
